Data published in patent publication US12256736B2, “Pyridazine compound and herbicide” (Nippon Soda Co., Ltd., priority 2019, dated 2025).

Tests used:
Type in all cases: in vivo
[1] = system: Zea mays for feed; assay: Test Example 3: spraying onto shoots, herbicidal index (crop); conditions: sprayed onto shoots (crop, shoot height 20 to 30 cm), three weeks after the treatment
Experimental: (§1) An emulsifiable concentrate for test was prepared in the same manner as that described in Test Example 1.
(§2) Seeds of each of Zea mays for feed, Alopecurus myosuroides, Lolium multiflorum, Avena sativa, Digitaria ciliaris, Setaria faberi, Abutilon theophrasti, and Amaranthus retroflexus were placed in a surface layer of soil filled in a pot with a size of 150 cm^2 and then lightly covered with soil. Subsequently, the pots were kept in a greenhouse to allow the plants to grow. When each of Alopecurus myosuroides, Lolium multiflorum, Avena sativa, Digitaria ciliaris, Setaria faberi, Abutilon theophrasti, and Amaranthus retroflexus grew to a shoot height ranging from 2 to 4 cm, and Zea mays for feed grew to a shoot height ranging from 20 to 30 cm, the emulsifiable concentrate mentioned above was diluted with water so as to have a specified amount of the active ingredient, and then sprayed onto the shoot parts by means of a small-sized sprayer at an application rate of 250 L of water per hectare.
(§3) Three weeks after the treatment, the weight of the shoot part of the alive plant in the untreated plot and the treated plot with respect to each plant was measured. The herbicidal index was calculated according to the calculation expression described below.
(§4) (4) Calculation Expression for Herbicidal Index Herbicidal index (%)=[(Weight of the shoot part of the alive plant in the untreated plot−Weight of the shoot part of the alive plant in the treated plot)/(Weight of the shoot part of the alive plant in the untreated plot)]×100
(§5) A diluted emulsifiable concentrate of the compound of A-2 was sprayed at a dosage of 250 g or 63 g of the compound per hectare.
(§6) In addition, with respect to the compound (A) described in Patent Document 1, the same application as described above was carried out.

[2] = system: Lolium multiflorum; assay: Test Example 2: tests of treating shoots, herbicidal index; conditions: 63 g/ha, sprayed onto shoots, four weeks after the treatment
Experimental: as §1
(§7) Seeds of each of Lolium multiflorum, Digitaria ciliaris, and Zea mays for feed were placed in a surface layer of soil filled in a pot with a size of 150 cm^2 and then lightly covered with soil. Subsequently, the pots were kept in a greenhouse to allow the plants to grow. When each of Lolium multiflorum and Digitaria ciliaris grew to a shoot height ranging from 2 to 4 cm, and Zea mays for feed grew to a shoot height ranging from 20 to 30 cm, the emulsifiable concentrate mentioned above was diluted with water so as to have a specified amount of the active ingredient, and then sprayed onto the shoot parts by means of a small-sized sprayer at an application rate of 250 L of water per hectare.
(§8) Four weeks after the treatment, the weight of the shoot part of the alive plant in the untreated plot and the treated plot with respect to each of Lolium multiflorum, Digitaria ciliaris, and Zea mays for feed was measured. The herbicidal index was calculated according to the calculation expression described below.
as §4
(§9) A diluted emulsifiable concentrate of the compound of A-2 was sprayed at a dosage of 63 g of the compound per hectare.
as §6

[3] = system: Digitaria ciliaris; assay: as above; conditions: 63 g/ha, sprayed onto shoots, four weeks after the treatment
Experimental: as §1, §7, §8, §4, §9, §6

[4] = system: Zea mays for feed; assay: Test Example 2: tests of treating shoots, herbicidal index (crop); conditions: 63 g/ha, sprayed onto shoots (crop, shoot height 20 to 30 cm), four weeks after the treatment
Experimental: as §1, §7, §8
(4) Calculation Expression for Herbicidal Index Herbicidal index (%)=[(Weight of the shoot part of the alive plant in the untreated plot−Weight of the shoot part of the alive plant in the treated plot)/(Weight of the shoot part of the alive plant in the untreated plot)]×100 […]

[5] = system: Alopecurus myosuroides; assay: Test Example 3: spraying onto shoots, herbicidal index; conditions: sprayed onto shoots, three weeks after the treatment
Experimental: as §1, §2, §3, §4, §5, §6

[6] = system: Lolium multiflorum; assay: as above; conditions: sprayed onto shoots, three weeks after the treatment
Experimental: as §1, §2, §3, §4, §5, §6

[7] = system: Amaranthus retroflexus; assay: as above; conditions: sprayed onto shoots, three weeks after the treatment
Experimental: as §1, §2, §3, §4, §5, §6

[8] = system: Setaria faberi; assay: as above; conditions: sprayed onto shoots, three weeks after the treatment
Experimental: as §1, §2, §3, §4, §5, §6

[9] = system: Avena sativa; assay: as above; conditions: sprayed onto shoots, three weeks after the treatment
Experimental: as §1, §2, §3, §4, §5, §6

[10] = system: Digitaria ciliaris; assay: as above; conditions: sprayed onto shoots, three weeks after the treatment
Experimental: as §1, §2, §3, §4, §5, §6

[11] = system: Abutilon theophrasti; assay: as above; conditions: sprayed onto shoots, three weeks after the treatment
Experimental: as §1, §2, §3, §4, §5, §6

| SMILES | Herbicidal index Zea mays for feed ([1]; 63 g ai/ha) [%] | Herbicidal index Zea mays for feed ([1]; 250 g ai/ha) [%] | Herbicidal index Lolium multiflorum [2] [%] | Herbicidal index Digitaria ciliaris [3] [%] | Herbicidal index Zea mays for feed [4] [%] | Herbicidal index Alopecurus myosuroides ([5]; 63 g ai/ha) [%] | Herbicidal index Alopecurus myosuroides ([5]; 250 g ai/ha) [%] | Herbicidal index Lolium multiflorum ([6]; 63 g ai/ha) [%] | Herbicidal index Lolium multiflorum ([6]; 250 g ai/ha) [%] | Herbicidal index Amaranthus retroflexus ([7]; 63 g ai/ha) [%] | Herbicidal index Amaranthus retroflexus ([7]; 250 g ai/ha) [%] | Herbicidal index Setaria faberi ([8]; 63 g ai/ha) [%] | Herbicidal index Setaria faberi ([8]; 250 g ai/ha) [%] | Herbicidal index Avena sativa ([9]; 63 g ai/ha) [%] | Herbicidal index Avena sativa ([9]; 250 g ai/ha) [%] | Herbicidal index Digitaria ciliaris ([10]; 63 g ai/ha) [%] | Herbicidal index Digitaria ciliaris ([10]; 250 g ai/ha) [%] | Herbicidal index Abutilon theophrasti ([11]; 63 g ai/ha) [%] | Herbicidal index Abutilon theophrasti ([11]; 250 g ai/ha) [%] |
| --- | --- | --- | --- | --- | --- | --- | --- | --- | --- | --- | --- | --- | --- | --- | --- | --- | --- | --- | --- |
| Cn1ncc(-c2ccc(C(F)(F)F)cc2S(C)(=O)=O)c(O)c1=O [(A)] | 40 | 90 | 40 | 80 | 50 | 50 | 90 | 40 | 50 | 100 | 100 | 80 | 100 | 60 | 80 | 80 | 90 | 80 | 90 |
| Cn1ncc(-c2ccc(C(F)(F)F)c3c2CCCS3(=O)=O)c(O)c1=O [Compound A-2, 5-(1,1-dioxido-8-(trifluoromethyl)thiochroman-5-yl)-4-hydroxy-2-methylpyridazin-3(2H)-one] | 0 | 20 | 100 | 90 | 0 | 80 | 100 | 100 | 100 | 100 | 100 | 100 | 100 | 100 | 100 | 90 | 100 | 100 | 100 |
